One series concerns SARS-CoV-2. The settings on record: Welch et al (2020) J. Clin. Microbiology; cited from earlier work.
A short description of series [1]: Viscosity by falling ball method. Format: physicochemical. The settings on record: falling ball method at 20° C.

Structures can show the parent of a compound that is named as a salt.

Broadly, the viscosity is the resistance of a fluid to flow. Low values mean a thin fluid, high ones a thick fluid.

In the case of `N=C(N)N` [Guanidine HCl], the “inactivation of SARS-CoV-2” value in the series with SARS-CoV-2 is “not completely inactivated”.

In the case of `N#CS.N=C(N)N` [Guanidine thiocyanate], in the series on SARS-CoV-2, the “inactivation of SARS-CoV-2” value is reported as “not completely inactivated”.

As for `CCCCCCCCCCCCOS(=O)(=O)[O-].[Na+]` [SDS], the “inactivation of SARS-CoV-2” value with SARS-CoV-2 was “not completely inactivated”.

With `COCCOCCOCCOCCOC` [Tetraethylene glycol dimethyl ether], the viscosity in series [1] is on record as 3.3 cP.

The molecule `COCCOCCOCCOCCO` [Tetraethylene glycol monomethyl ether] registered a viscosity in series [1] of 12 cP.

Regarding Triton X-100, in the series with SARS-CoV-2, the “inactivation of SARS-CoV-2” value was “not completely inactivated”.

These data come from US20230220313A1, “COMPOSITION AND METHOD FOR INACTIVATING A VIRUS” (RNASSIST LIMITED, priority 2020, published 2023).
